ChEMBL document CHEMBL1152035, “Rational design of potent carboxylic acid based bisubstrate inhibitors of ras farnesyl protein transferase” (Bioorg Med Chem Lett, 1994)

Target: Protein farnesyltransferase (Homo sapiens, UniProt P49354+P49356)
Test: Inhibition of ras Farnesyltransferase
Type: protein-complex assay

IC50 [µM] | Structure (SMILES)
3.4 | CC(C)=CCC/C(C)=C/CC/C(C)=C/C(=O)N[C@@H](CCC(=O)N[C@H](C(=O)N[C@@H](CC(C)C)C(=O)N[C@@H](CO)C(=O)O)C(C)C)C(=O)O (stereo in doubt; 29 (D))
10 | CCCCCCCCCCCCC(CCC(=O)N[C@H](C(=O)N[C@@H](CC(C)C)C(=O)N[C@@H](CO)C(=O)O)C(C)C)C(=O)O (some centres undefined)
14 | CC(C)=CCC/C(C)=C/CC/C(C)=C/CN[C@H](CCC(=O)N[C@H](C(=O)N[C@@H](CC(C)C)C(=O)N[C@@H](CO)C(=O)O)C(C)C)C(=O)O
4.4 | CC(C)=CCC/C(C)=C/CC/C(C)=C/CNC(=O)C(CCC(=O)N[C@H](C(=O)N[C@@H](CC(C)C)C(=O)N[C@@H](CO)C(=O)O)C(C)C)C(=O)O (some centres undefined)
0.9 | CC(C)=CCC/C(C)=C/CC/C(C)=C/CC(CCC(=O)N[C@H](C(=O)N[C@@H](CC(C)C)C(=O)N[C@@H](CO)C(=O)O)C(C)C)C(=O)O (some centres undefined)
4.5 | CC(C)=CCC/C(C)=C/CC/C(C)=C/CC(CC(=O)N[C@H](C(=O)N[C@@H](CC(C)C)C(=O)N[C@@H](CO)C(=O)O)C(C)C)C(=O)O (some centres undefined)
1.2 | CC(C)=CCC/C(C)=C/CC/C(C)=C/CC(CCCC(=O)N[C@H](C(=O)N[C@@H](CC(C)C)C(=O)N[C@@H](CO)C(=O)O)C(C)C)C(=O)O (some centres undefined)
> 360 | CC(C)=CCC/C(C)=C/CC/C(C)=C/CCCCC(=O)N[C@H](C(=O)N[C@@H](CC(C)C)C(=O)N[C@@H](CO)C(=O)O)C(C)C
3.4 | CC(C)=CCC/C(C)=C/CC/C(C)=C/CN[C@@H](CCC(=O)N[C@H](C(=O)N[C@@H](CC(C)C)C(=O)N[C@@H](CO)C(=O)O)C(C)C)C(=O)O
20 | CC(C)=CCC/C(C)=C/CC/C(C)=C/CC(C[C@H](NC(=O)OC(C)(C)C)C(=O)N[C@H](C(=O)N[C@@H](CC(C)C)C(=O)N[C@@H](CO)C(=O)O)C(C)C)C(=O)O (some centres undefined)
> 360 | CCOC(=O)C(C/C=C(\C)CC/C=C(\C)CCC=C(C)C)CCC(=O)N[C@H](C(=O)N[C@@H](CC(C)C)C(=O)N[C@@H](CO)C(=O)O)C(C)C (some centres undefined)
0.033 | CC(C)=CCC/C(C)=C/CC/C(C)=C/C(=O)N[C@@H](CCC(=O)N[C@H](C(=O)N[C@@H](CC(C)C)C(=O)N[C@@H](CO)C(=O)O)C(C)C)C(=O)O (stereo in doubt; 28 (L))
1.8 | CC(C)=CCC/C(C)=C/CC/C(C)=C/CC(CCCCC(=O)N[C@H](C(=O)N[C@@H](CC(C)C)C(=O)N[C@@H](CO)C(=O)O)C(C)C)C(=O)O (some centres undefined)
0.15 | CC(C)=CCC/C(C)=C/CC/C(C)=C/CC(CCC(=O)N[C@H](C(=O)N[C@@H](CC(C)C)C(=O)N[C@@H](CO)C(=O)O)C(C)C)C(=O)NCP(=O)(O)O (some centres undefined)
